# According to patent US20160193202A1, “THERAPEUTIC TREATMENT FOR DRUG POISONING AND ADDICTION” (ADISPELL, INC., priority 2013, published 2016):
# “And” between values parts separate entries of the source, which are not always exact repeats. Equal entries are not always repeated. “Also recorded” adds a separate entry of the source. Where two headings read alike, the source gives them in different places.
# Key:
# [1] = test system: rats; assay: Morris water maze probe trial with scopolamine; type: in vivo, rat; details: for Morris water maze individual swimming trace, finding of target area: individual rat, FIGS. 1A-1C
# Source text: The Morris water maze for rats (San Diego Instruments) uses a 70 inch diameter swimming tank, in which rats, one at a time, are placed to determine the swimming time taken to find a platform, which can be visible or submerged, and is placed randomly in the tank, with its position locatable by means of navigation in response to visible clues. A video camera is positioned to record the swimming path of the rat, and computer analysis of the path permits accurate assessment of elapsed time, distance traveled, and route taken to achieve particular objectives. This technique is used to study memory, learning and spatial working, in healthy, diseased, and drug-affected states. The test can be applied acutely (probe test) or can involve considerable training and repeat measure experimental designs. The term “latency” in the context of the Morris water maze is used to depict the relation of time taken to escape from the water (Morris R., “Development of a Water-Maze Procedure for Studying Spatial Learning in The Rat,” Journal of Neuroscience Methods 11:47-60 (1984) and Wongwitdecha et al., “Effects of Social Isolation Rearing on Learning in the Morris Water Maze,” Brain Research 715:119-124 (1996), both of which are hereby incorporated by reference in their entirety).
# This was a single dose probe trial in normal healthy rats with the objective of determining whether: (a) there is an effect in raising cognitive efficiency in unimpaired rats and (b) impairment caused by scopolamine can be reversed by EME.
# FIGS. 1A-1C show three individual swimming traces for rats treated with a control vehicle (FIG. 1A), a combined dose of ecgonine methyl ester (EME) (10 mg/kg) and scopolamine (1 mg/kg) (FIG. 1B), and a single dose of scopolamine (1 mg/kg) (FIG. 1C). The target area was in the “south west” or bottom left quadrant of the bath. […] This observation was significant (p<0.05).
# The group results in this probe trial with vehicle (VEH), EME alone, scopolamine alone, and EME plus scopolamine in the acute dose Morris water maze experiment are shown in FIG. 2. In particular, column 1 depicts the probe test results for the vehicle, column 2 depicts probe test results for EME alone, column 3 depicts probe test results for scopolamine alone, and column 4 depicts probe test results for EME in combination with scopolamine.
# [2] = biological target: nicotinic acetylcholine receptor (Mus musculus, UniProt P02716+P04756+P04760+P09690); details: cited from earlier work
# [3] = test system: mice; details: mice pretreated with EME 50 mg/kg, 126 mg/kg cocaine five minutes later; survivors/animals; cited from earlier work
# [4] = biological target: T1, BC3H1 nicotinic acetylcholine receptor (Mus musculus, UniProt P02716+P04756+P04760+P09690); details: 100 μM carbamoylcholine, cited from earlier work
# T1 construct: endogenous in cells; host or cells: BC3H1 cells
# [5] = in vivo; details: rat, brain and plasma, ip, 10 mg/kg
# Procedure: (§1) Plasma and Brain Concentrations after Intraperitoneal Doses—Twenty young adult rats in groups of four were given intraperitoneal doses of 10 mg/kg, and killed and dissected at various times after dosing. Brain and plasma concentrations were assessed by GC-MS. Samples were pre-dose, and at 1, 2, 4 and 24 hours after the dose. Each point is the mean value from four rats.
# [6] = Brain and plasma concentrations after 10 mg/kg intraperitoneal doses (GC-MS)
# Procedure: as §1
# [7] = read-out: KD(Alv), range where effects of multiple Class 1 compounds were alleviated
# [8] = range where effects of multiple Class 1 compounds were alleviated, read-out: KD(Alv)
# nicotinic acetylcholine receptor, sequence (P04756 21-457): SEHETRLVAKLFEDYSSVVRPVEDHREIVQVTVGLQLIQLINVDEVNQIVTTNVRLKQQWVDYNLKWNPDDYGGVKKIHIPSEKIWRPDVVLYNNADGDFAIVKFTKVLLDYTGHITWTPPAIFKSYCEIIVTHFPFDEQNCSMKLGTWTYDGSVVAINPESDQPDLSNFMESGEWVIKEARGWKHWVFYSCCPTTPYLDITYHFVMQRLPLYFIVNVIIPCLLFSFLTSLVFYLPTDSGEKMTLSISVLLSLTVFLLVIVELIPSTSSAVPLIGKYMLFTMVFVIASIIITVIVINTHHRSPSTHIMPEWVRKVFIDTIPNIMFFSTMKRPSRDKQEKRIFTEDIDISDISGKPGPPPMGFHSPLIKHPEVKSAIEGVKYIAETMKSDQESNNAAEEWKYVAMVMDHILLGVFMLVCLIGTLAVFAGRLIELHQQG
# nicotinic acetylcholine receptor, sequence (P09690 24-501): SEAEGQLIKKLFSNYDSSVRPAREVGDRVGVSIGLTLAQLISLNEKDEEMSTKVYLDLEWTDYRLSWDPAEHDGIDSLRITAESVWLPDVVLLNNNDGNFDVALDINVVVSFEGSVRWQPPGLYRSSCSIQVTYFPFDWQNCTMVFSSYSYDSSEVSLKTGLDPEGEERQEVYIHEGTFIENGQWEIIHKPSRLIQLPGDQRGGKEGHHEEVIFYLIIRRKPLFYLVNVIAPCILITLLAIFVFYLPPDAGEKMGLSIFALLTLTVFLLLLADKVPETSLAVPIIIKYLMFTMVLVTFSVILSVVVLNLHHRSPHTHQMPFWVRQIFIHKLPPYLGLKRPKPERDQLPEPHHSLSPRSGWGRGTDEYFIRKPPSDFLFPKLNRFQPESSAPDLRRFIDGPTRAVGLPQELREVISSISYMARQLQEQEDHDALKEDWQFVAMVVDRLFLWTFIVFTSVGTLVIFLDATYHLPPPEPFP
# nicotinic acetylcholine receptor, sequence (P04760 23-519): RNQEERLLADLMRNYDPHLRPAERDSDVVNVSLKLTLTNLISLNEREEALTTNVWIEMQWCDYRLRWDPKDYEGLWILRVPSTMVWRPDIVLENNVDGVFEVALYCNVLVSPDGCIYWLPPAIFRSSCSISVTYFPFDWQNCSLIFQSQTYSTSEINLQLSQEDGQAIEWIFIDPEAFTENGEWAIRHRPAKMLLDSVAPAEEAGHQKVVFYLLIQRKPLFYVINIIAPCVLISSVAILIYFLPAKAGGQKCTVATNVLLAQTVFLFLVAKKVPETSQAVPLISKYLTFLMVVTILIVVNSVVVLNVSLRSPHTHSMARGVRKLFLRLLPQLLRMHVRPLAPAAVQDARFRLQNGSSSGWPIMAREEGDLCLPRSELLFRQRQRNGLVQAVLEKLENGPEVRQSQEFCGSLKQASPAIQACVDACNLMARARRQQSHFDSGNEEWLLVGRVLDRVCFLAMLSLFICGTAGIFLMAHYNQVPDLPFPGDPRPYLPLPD
# nicotinic acetylcholine receptor, sequence (P02716 25-520): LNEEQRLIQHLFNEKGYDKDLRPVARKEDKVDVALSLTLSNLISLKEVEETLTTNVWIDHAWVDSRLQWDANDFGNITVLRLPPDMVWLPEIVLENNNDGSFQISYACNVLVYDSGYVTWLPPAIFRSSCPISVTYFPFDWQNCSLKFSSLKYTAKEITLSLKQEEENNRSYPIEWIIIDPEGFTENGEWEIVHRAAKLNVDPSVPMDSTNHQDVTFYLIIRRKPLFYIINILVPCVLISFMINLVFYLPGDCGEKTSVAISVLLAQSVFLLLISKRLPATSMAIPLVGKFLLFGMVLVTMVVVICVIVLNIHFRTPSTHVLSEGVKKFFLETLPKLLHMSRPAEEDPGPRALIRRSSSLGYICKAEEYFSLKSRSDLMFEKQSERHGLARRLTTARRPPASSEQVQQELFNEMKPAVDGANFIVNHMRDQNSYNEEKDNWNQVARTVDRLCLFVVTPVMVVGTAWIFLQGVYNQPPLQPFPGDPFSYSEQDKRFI
# T1 sequence (P04756 21-457): as the sequence (P04756 21-457) above
# T1 sequence (P09690 24-501): as the sequence (P09690 24-501) above
# T1 sequence (P04760 23-519): as the sequence (P04760 23-519) above
# T1 sequence (P02716 25-520): as the sequence (P02716 25-520) above
compound,measurement,setting,value
"COC(=O)C1C(O)CC2CCC1N2C (stereo not shown) [EME, ecgonine methyl ester]","Morris water maze probe test, group result, reversal of scopolamine impairment","[1]; EME (10 mg/kg) combined with scopolamine (1 mg/kg), single dose, group size 10",reversed the scopolamine effect; also recorded: restore function impaired by scopolamine
same,"Morris water maze probe test, group result versus controls","[1]; EME alone, single dose, normal healthy rats, group size 10",no effect on its own
same,"Morris water maze individual swimming trace, finding of target area",[1],found the target area
same,Kd,[2]; [7],0.8 to 12.7 µM
same,Survival,[3],increased survival and 9/40
same,Alleviation of cocaine inhibition of the nicotinic acetylcholine receptor,[4]; cocaine present (200 μM for EME),Alleviation of cocaine inhibition
same,Kp,[5],~10
same,Predicted half-life in humans,[6]; predicted from persistence in rats,6 to 8 h
same,Absorption after the IP dose,"[6]; rat, 10 mg/kg IP",rapid absorption
same,Decay of plasma concentrations,"[6]; rat, 10 mg/kg IP",biexponential decay
same,Time of maximal brain concentration,"[6]; rat, 10 mg/kg IP",2 h
same,Time of peak plasma concentration,"[6]; rat, 10 mg/kg IP",already peaked at one hour
same,Brain penetration,"[6]; rat, in vivo",readily penetrates the brain
CN1C2CC(S(=O)(=O)c3ccccc3)C1C(C(=O)O)=C(c1ccccc1)C2=O (stereo not shown) [RCS-111-218],Kd,[2]; [8],5 µM
CN1C2CC(S(=O)(=O)c3ccccc3)C1C(C(=O)O)=CC2=O (stereo not shown) [RCS-111-143],Kd,[2]; [8],3.3 µM
COC(=O)C1=C(c2ccccc2)C(=O)C2CC(S(=O)(=O)c3ccccc3)C1N2C (stereo not shown) [RCS-111-202A],Kd,[2]; [8],2.8 µM
COC(=O)C1=CC(=O)C2CC(S(=O)(=O)c3ccccc3)C1N2C (stereo not shown) [RCS-111-140A],Kd,[2]; [8],0.8 to 8.2 µM
same,Kd,"[2]; unit inferred, read-out: KD(alv)",0.8 µM
"COC(=O)C1C(OC(C)=O)CC2CCC1N2C (stereo not shown) [3.Acetoxy EME, 3-Acetoxy EME]",Kd,[2]; [8],3.3 µM
"aptamer 3: Class 2 RNA aptamer, SEQ ID NO:56 (AGUAGGAAUACCCCCAUCCAAAGCUCGCUAGGCUGAACAC; RNA, backbone not given here)",Effect on whole-cell current generated by carbamoylcholine,"[4]; 5 μM aptamer, −60 mV, 22° C., pH 7.4, no inhibitor",no effect
CN1C2CCC1C(C(=O)O)C(c1ccc(Cl)cc1)C2 (stereo not shown) [RTI Compound],Kd,[2]; [7],0.7 to 14 µM
same,Kd,"[2]; read-out: KD(alv), unit inferred",0.7 µM
"CN1[C@@H]2C[C@@H](OC(=O)[C@H](CO)c3ccccc3)C[C@H]1[C@@H]1O[C@@H]12 [scopolamine, reference compound]","Morris water maze individual swimming trace, finding of target area",[1],showed no preference
same,"Morris water maze probe test, group result","[1]; scopolamine alone (1 mg/kg), group size 10, p<0.05",showed the impairment
"CN1C2CCC1C(C(=O)O)C(O)C2 (stereo not shown) [Ecgonine, ecgonine]",Kd,[2]; [7],3.5 µM
